The results in this text go back to patent publication US4257962A, “Derivatives of bicyclic lactols” (Chinoin Gyogyszer es Vegyeszeti Termekek Gyara Rt., priority 1977, dated 1981).

This data set in a line: Acute toxicity (LD50) in mice. To be noted: mouse, in vivo.

Usually LD50 stands for the dose expected to kill half of the subjects tested.

Take `CCCCCOC1C[C@@H]2[C@@H](/C=C/[C@H](O)CCCCC)[C@H](O)C[C@@H]2O1` (single isomer, unassigned; (-)) [(-)-2,3,3aβ,6aβ-Tetrahydro-2-pentyloxy-5α-hydroxy-4β-(3β-hydroxy-oct-1-trans-enyl)-cyclopentano[b]furan]: the LD50 was found to be 700 mg/kg.
